Patent US11746087B1, “C4-carboxylic acid-substituted tryptamine derivatives and methods of using” (priority 2022, dated 2023)
Like-named read-outs stand apart in the source and are kept apart here.

Columns and labels:
[1] = Mouse PK study (IV and PO), plasma parent compound and psilocin by LC-MS/MS; assay type: in vivo; details: male, C57Bl/6, mouse, plasma; for C0: read-out: C0; for Vd: read-out: Vss
Source text: Briefly, the procedure was as follows. […] 19, 2022.

ADRA1A = target: T1, ADRA1A (Homo sapiens, UniProt P35348); experiment: Calcium secondary messenger assay, antagonist mode; assay type: cell-based
T1 sequence (P35348 1-466): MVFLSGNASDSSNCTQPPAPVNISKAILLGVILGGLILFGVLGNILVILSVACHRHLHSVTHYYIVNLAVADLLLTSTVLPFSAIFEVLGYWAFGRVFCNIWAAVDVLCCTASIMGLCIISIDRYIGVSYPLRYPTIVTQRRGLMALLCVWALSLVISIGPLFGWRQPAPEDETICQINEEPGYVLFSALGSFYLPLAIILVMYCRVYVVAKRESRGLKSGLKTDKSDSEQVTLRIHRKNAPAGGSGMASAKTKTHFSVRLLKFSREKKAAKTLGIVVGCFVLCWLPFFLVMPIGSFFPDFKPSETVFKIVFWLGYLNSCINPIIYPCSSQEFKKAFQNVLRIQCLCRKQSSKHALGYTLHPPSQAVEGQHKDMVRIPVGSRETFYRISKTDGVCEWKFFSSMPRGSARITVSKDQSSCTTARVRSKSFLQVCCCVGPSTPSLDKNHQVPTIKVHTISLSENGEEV

ADRA2A = target: T2, ADRA2A (Homo sapiens, UniProt P08913); experiment: EFC-based cAMP secondary messenger assay, agonist mode; assay type: cell-based
T2 sequence (P08913 1-465): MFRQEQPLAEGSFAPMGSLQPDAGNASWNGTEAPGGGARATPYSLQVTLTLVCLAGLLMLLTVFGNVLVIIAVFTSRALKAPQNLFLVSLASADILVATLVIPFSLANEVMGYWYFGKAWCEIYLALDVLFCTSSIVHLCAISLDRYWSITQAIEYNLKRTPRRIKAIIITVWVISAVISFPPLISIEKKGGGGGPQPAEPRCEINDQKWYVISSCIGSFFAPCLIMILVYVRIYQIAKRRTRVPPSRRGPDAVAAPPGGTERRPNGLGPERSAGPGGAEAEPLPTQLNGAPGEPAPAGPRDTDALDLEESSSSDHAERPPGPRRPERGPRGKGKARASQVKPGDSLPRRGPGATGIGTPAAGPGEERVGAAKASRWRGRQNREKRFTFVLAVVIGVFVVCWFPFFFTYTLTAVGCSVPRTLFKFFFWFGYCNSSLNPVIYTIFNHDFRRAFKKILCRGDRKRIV

AVPR1A = AVPR1A (Homo sapiens, UniProt P37288); experiment: Calcium secondary messenger assay, agonist mode; assay type: cell-based
CHRM2 = target: T3, CHRM2 (Homo sapiens, UniProt P08172); experiment: EFC-based cAMP secondary messenger assay, agonist mode; assay type: cell-based
T3 sequence (P08172 1-466): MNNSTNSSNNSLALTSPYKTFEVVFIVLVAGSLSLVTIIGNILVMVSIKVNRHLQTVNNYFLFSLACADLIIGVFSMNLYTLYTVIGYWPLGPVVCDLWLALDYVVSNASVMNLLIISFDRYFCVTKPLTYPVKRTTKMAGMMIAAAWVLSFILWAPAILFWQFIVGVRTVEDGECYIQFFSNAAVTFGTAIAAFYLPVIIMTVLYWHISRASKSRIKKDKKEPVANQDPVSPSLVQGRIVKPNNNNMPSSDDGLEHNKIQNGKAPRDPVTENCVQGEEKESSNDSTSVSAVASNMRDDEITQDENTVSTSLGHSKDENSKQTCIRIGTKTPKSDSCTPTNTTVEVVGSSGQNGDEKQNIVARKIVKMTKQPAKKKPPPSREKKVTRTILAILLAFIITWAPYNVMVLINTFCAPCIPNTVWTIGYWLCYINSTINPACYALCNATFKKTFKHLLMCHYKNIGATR

CNR1 = CNR1 (Homo sapiens, UniProt P21554); experiment: EFC-based cAMP secondary messenger assay, antagonist mode; assay type: cell-based
DRD1 = DRD1 (Homo sapiens, UniProt P21728); experiment: as above; assay type: cell-based
HTR1B (5-HTR1B) [2] = target: T4, HTR1B (5-HTR1B) (Homo sapiens, UniProt P28222); experiment: EFC-based cAMP secondary messenger assay, agonist mode; assay type: cell-based
HTR1B (5-HTR1B) [3] = target: T4, HTR1B (5-HTR1B); experiment: EFC-based cAMP secondary messenger assay, antagonist mode; assay type: cell-based
OPRD1 = OPRD1 (Homo sapiens, UniProt P41143); experiment: EFC-based cAMP secondary messenger assay, agonist mode; assay type: cell-based
NMDAR = NMDAR (Homo sapiens, UniProt Q05586+Q13224); experiment: Ion channel assay (FLIPR membrane potential), blocker; assay type: cell-based
[4] = iv, 1 mg/kg, C(XX) in plasma, 1 mg/kg i.v. C(XX), Mean ± SD
[5] = iv, 1 mg/kg, C(XX) in plasma, 1 mg/kg i.v. C(XX), per animal
[6] = oral, 1 mg/kg, 1 mg/kg oral C(XX), Mean ± SD, read-out: Plasma concentration of C(XX)
[7] = oral, 1 mg/kg, 1 mg/kg oral C(XX), per animal, BLQ <0.25 ng/mL, read-out: Plasma concentration of C(XX)
[8] = oral, 3 mg/kg, 3 mg/kg oral C(XX), Mean ± SD, read-out: Plasma concentration of C(XX)
[9] = oral, 3 mg/kg, 3 mg/kg oral C(XX), per animal, BLQ <0.25 ng/mL, read-out: Plasma concentration of C(XX)
[10] = oral, 10 mg/kg, 10 mg/kg oral C(XX), Mean ± SD, read-out: Plasma concentration of C(XX)
[11] = oral, 10 mg/kg, 10 mg/kg oral C(XX), per animal, BLQ <0.25 ng/mL, read-out: Plasma concentration of C(XX)
[12] = oral, 10 mg/kg, 10 mg/kg oral C(XX), mean (n = 2), read-out: Plasma concentration of C(XX)

T4 sequence (P28222 whole entry): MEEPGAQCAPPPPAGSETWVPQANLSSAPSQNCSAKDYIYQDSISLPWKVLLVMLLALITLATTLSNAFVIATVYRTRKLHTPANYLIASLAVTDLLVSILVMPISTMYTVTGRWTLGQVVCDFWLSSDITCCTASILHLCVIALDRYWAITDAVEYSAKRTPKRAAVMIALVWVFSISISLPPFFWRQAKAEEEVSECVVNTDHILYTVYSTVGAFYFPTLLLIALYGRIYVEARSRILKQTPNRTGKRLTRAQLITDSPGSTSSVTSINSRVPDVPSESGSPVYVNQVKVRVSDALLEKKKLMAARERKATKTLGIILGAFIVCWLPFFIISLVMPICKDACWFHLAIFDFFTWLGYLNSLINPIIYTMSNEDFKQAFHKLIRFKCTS
Chain of CNR1 (P21554 whole entry): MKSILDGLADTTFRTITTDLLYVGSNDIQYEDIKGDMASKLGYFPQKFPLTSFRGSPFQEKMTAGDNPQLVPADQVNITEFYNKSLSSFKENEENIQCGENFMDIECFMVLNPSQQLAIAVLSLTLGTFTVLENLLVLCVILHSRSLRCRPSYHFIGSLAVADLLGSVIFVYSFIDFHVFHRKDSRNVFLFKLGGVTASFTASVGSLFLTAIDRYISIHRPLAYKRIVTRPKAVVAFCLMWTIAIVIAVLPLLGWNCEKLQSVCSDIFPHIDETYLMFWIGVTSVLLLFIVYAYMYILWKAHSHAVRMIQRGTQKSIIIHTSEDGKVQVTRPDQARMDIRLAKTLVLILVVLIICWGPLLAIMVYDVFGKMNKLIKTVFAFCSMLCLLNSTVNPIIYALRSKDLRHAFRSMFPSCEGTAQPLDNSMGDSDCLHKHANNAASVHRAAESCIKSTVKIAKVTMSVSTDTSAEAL
Chain of AVPR1A (P37288 whole entry): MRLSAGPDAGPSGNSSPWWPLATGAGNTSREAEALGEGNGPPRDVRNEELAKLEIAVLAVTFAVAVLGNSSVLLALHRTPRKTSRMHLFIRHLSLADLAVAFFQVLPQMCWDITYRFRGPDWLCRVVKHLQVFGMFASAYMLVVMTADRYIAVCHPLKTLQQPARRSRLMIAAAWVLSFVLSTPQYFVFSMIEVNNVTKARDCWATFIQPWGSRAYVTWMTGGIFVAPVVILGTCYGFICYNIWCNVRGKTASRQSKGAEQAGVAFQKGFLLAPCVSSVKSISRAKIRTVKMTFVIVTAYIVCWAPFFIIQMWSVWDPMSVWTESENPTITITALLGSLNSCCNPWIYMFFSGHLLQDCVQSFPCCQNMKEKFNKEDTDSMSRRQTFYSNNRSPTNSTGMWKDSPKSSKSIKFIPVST
Chain of OPRD1 (P41143 whole entry): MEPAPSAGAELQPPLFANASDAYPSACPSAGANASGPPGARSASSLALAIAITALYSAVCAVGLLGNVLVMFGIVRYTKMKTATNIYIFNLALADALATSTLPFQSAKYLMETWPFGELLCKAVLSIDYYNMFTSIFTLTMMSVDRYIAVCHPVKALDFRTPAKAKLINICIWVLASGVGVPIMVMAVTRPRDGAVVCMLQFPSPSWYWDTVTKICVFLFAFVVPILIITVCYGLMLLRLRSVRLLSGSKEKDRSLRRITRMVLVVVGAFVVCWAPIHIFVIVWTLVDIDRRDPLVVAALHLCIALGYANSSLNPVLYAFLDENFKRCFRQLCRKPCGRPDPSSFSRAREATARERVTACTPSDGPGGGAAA
Chain of NMDAR (Q13224 27-1484, other chains not shown): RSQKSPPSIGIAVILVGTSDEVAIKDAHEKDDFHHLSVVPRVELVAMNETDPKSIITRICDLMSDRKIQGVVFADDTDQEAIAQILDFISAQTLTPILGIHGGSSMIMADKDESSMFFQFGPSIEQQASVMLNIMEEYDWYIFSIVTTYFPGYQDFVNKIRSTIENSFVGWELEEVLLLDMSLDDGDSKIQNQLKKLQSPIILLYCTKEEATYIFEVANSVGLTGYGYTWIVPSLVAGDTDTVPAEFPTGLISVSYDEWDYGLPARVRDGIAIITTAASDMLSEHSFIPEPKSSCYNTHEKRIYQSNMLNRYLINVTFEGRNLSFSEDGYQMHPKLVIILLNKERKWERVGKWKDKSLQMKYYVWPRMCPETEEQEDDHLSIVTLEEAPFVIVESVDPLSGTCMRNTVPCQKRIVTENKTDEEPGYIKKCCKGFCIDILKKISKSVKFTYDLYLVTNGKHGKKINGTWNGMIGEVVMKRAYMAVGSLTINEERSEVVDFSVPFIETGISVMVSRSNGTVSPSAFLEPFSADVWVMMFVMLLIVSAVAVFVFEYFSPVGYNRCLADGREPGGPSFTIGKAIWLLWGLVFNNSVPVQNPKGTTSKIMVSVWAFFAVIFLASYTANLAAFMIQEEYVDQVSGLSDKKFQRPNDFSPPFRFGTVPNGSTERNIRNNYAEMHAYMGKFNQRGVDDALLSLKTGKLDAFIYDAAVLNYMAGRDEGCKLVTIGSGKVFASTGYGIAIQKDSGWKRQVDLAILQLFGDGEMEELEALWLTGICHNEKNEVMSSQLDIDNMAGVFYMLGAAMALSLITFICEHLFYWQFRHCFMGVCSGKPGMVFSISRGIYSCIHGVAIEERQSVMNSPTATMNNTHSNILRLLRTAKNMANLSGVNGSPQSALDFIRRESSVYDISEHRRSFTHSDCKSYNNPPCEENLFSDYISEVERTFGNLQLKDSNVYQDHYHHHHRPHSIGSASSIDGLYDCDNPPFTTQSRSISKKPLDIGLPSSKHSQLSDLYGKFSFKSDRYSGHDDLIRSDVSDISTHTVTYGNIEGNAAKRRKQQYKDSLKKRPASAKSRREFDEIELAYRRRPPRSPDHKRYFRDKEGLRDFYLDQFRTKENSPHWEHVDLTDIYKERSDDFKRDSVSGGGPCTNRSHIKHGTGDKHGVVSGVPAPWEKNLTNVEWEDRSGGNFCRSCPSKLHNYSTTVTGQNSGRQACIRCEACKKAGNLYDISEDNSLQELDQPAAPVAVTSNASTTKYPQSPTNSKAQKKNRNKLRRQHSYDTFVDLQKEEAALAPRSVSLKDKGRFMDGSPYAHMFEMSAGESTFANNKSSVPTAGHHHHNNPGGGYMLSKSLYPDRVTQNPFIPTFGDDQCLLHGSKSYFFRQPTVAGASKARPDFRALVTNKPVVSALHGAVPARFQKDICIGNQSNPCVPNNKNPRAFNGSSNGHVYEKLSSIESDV
Chain of DRD1 (P21728 whole entry): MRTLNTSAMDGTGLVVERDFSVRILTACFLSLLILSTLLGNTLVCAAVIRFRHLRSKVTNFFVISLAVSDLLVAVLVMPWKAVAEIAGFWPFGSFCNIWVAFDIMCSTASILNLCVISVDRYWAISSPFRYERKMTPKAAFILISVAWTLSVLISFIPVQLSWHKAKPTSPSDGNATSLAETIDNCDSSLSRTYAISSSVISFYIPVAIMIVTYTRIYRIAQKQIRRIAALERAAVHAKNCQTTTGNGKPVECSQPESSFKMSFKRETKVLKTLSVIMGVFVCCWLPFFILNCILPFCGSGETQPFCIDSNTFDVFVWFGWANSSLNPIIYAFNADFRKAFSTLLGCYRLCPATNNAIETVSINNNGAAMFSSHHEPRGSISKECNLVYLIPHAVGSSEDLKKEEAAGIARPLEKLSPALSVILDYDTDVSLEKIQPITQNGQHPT

Which results are given for `CN(C)CCc1c[nH]c2cccc(OC(=O)c3cccc4c3OCCO4)c12` [C(XX)]?
AUC(0-t) ([1]; iv, 1 mg/kg, C(XX) in plasma, 1 mg/kg i.v. C(XX), Mean ± SD, read-out: AUC0-tlast): 52.8 ± 8.3 ng·h/mL; half-life ([1]; iv, 1 mg/kg, C(XX) in plasma, 1 mg/kg i.v. C(XX), Mean ± SD, read-out: Apparent t1/2 (converted)): 33.8 ± 3.23 min; C0 [1, 4]: 161 ± 37.3 ng/mL; MRT inf ([1]; iv, 1 mg/kg, C(XX) in plasma, 1 mg/kg i.v. C(XX), Mean ± SD, read-out: MRT0-inf): 24.7 ± 2.27 min; Vd [1, 4]: 7.94 ± 1.79 L/kg; clearance [1, 5]: 345 mL/min/kg; AUC(0-inf) ([1]; iv, 1 mg/kg, C(XX) in plasma, 1 mg/kg i.v. C(XX), per animal, read-out: AUC0-inf): 48.3 ng·h/mL; AUC(0-t) ([1]; iv, 1 mg/kg, C(XX) in plasma, 1 mg/kg i.v. C(XX), per animal, read-out: AUC0-tlast): 48.1 ng·h/mL; half-life ([1]; iv, 1 mg/kg, C(XX) in plasma, 1 mg/kg i.v. C(XX), per animal, read-out: Apparent t1/2 (converted)): 37.5 min; C0 [1, 5]: 140 ng/mL; MRT inf ([1]; iv, 1 mg/kg, C(XX) in plasma, 1 mg/kg i.v. C(XX), per animal, read-out: MRT0-inf): 26.2 min; Vd [1, 5]: 9.03 L/kg; concentration at 0.25 h [1, 6]: 0.603 ± 0.127 ng/mL; concentration at 0.25 h [1, 7]: 0.701 ng/mL; concentration at 0.5 h [1, 6]: 0.62 ± 0.0996 ng/mL; concentration at 0.5 h [1, 7]: 0.702 ng/mL; concentration at 1 h [1, 6]: 0.294 ± 0.0987 ng/mL; concentration at 1 h [1, 7]: 0.396 ng/mL; concentration at 0.25 h [1, 8]: 1.71 ± 0.22 ng/mL; concentration at 0.25 h [1, 9]: 1.49 ng/mL; concentration at 0.5 h [1, 8]: 1.34 ± 0.179 ng/mL; concentration at 0.5 h [1, 9]: 1.45 ng/mL; concentration at 1 h [1, 8]: 0.572 ± 0.164 ng/mL; concentration at 1 h [1, 9]: 0.43 ng/mL; concentration at 2 h [1, 8]: 0.175 ± 0.0621 ng/mL; concentration at 2 h [1, 9]: 0.124 ng/mL; concentration at 0.25 h [1, 10]: 7.47 ± 3.92 ng/mL; concentration at 0.5 h [1, 10]: 4.15 ± 1.52 ng/mL; concentration at 1 h [1, 10]: 1.99 ± 0.657 ng/mL; concentration at 1 h [1, 11]: 1.53 ng/mL; concentration at 2 h [1, 10]: 0.773 ± 0.279 ng/mL; concentration at 4 h [1, 12]: 0.264 ng/mL; concentration at 4 h [1, 11]: 0.225 ng/mL; concentration at 6 h ([1]; oral, 10 mg/kg, 10 mg/kg oral C(XX), 6 h, mean (n = 2), read-out: Plasma concentration of C(XX)): 0.36 ng/mL; concentration at 8 h [1, 12]: 0.26 ng/mL; concentration at 8 h [1, 11]: 0.335 ng/mL; Cmax ([1]; po, 1 mg/kg, C(XX) in plasma, 1 mg/kg oral C(XX), Mean ± SD, read-out: Cmax): 0.62 ± 0.0996 ng/mL; Tmax ([1]; po, 1 mg/kg, C(XX) in plasma, 1 mg/kg oral C(XX), Mean ± SD, read-out: tmax): 25 ± 8.64 min; Cmax ([1]; po, 1 mg/kg, C(XX) in plasma, 1 mg/kg oral C(XX), per animal, read-out: Cmax): 0.702 ng/mL; Tmax ([1]; po, 1 mg/kg, C(XX) in plasma, 1 mg/kg oral C(XX), per animal, read-out: tmax): 30 min; half-life ([1]; po, 3 mg/kg, 3 mg/kg p.o. C(XX), mean ± SD, read-out: Apparent t1/2 of C(XX) in plasma (converted)): 31.7 min; AUC(0-inf) ([1]; po, 3 mg/kg, C(XX) in plasma, 3 mg/kg oral C(XX), Mean ± SD, read-out: AUC0-inf): 1.51 ± 0.21 ng·h/mL; AUC(0-t) ([1]; po, 3 mg/kg, C(XX) in plasma, 3 mg/kg oral C(XX), Mean ± SD, read-out: AUC0-tlast): 1.37 ± 0.137 ng·h/mL; half-life ([1]; po, 3 mg/kg, C(XX) in plasma, 3 mg/kg oral C(XX), Mean ± SD, read-out: Apparent t1/2 (converted)): 31.7 ± 7.38 min; Cmax ([1]; po, 3 mg/kg, C(XX) in plasma, 3 mg/kg oral C(XX), Mean ± SD, read-out: Cmax): 1.71 ± 0.22 ng/mL; MRT inf ([1]; po, 3 mg/kg, C(XX) in plasma, 3 mg/kg oral C(XX), Mean ± SD, read-out: MRT0-inf): 53.9 ± 9.48 min; Tmax ([1]; po, 3 mg/kg, C(XX) in plasma, 3 mg/kg oral C(XX), Mean ± SD, read-out: tmax): 15 min; AUC(0-inf) ([1]; po, 3 mg/kg, C(XX) in plasma, 3 mg/kg oral C(XX), per animal, read-out: AUC0-inf): 1.3 ng·h/mL; AUC(0-t) ([1]; po, 3 mg/kg, C(XX) in plasma, 3 mg/kg oral C(XX), per animal, read-out: AUC0-tlast): 1.22 ng·h/mL; half-life ([1]; po, 3 mg/kg, C(XX) in plasma, 3 mg/kg oral C(XX), per animal, read-out: Apparent t1/2 (converted)): 26.3 min; Cmax ([1]; po, 3 mg/kg, C(XX) in plasma, 3 mg/kg oral C(XX), per animal, read-out: Cmax): 1.49 ng/mL; MRT inf ([1]; po, 3 mg/kg, C(XX) in plasma, 3 mg/kg oral C(XX), per animal, read-out: MRT0-inf): 47.6 min; Tmax ([1]; po, 3 mg/kg, C(XX) in plasma, 3 mg/kg oral C(XX), per animal, read-out: tmax): 15 min; AUC(0-inf) ([1]; po, 10 mg/kg, 10 mg/kg oral C(XX), individual animals, read-out: AUC0-inf of C(XX) in plasma): 5.4 ng·h/mL; AUC(0-t) ([1]; po, 10 mg/kg, 10 mg/kg oral C(XX), individual animals, read-out: AUC0-tlast of C(XX) in plasma): 5.65 ng·h/mL; Tmax ([1]; po, 10 mg/kg, 10 mg/kg oral C(XX), individual animals, read-out: tmax of C(XX) in plasma): 15 min; AUC(0-inf) ([1]; po, 10 mg/kg, 10 mg/kg oral C(XX), mean (n = 2), read-out: AUC0-inf of C(XX) in plasma): 8.03 ng·h/mL; half-life ([1]; po, 10 mg/kg, 10 mg/kg oral C(XX), mean (n = 2), read-out: Apparent t1/2 of C(XX) in plasma (converted)): 186 min; MRT inf ([1]; po, 10 mg/kg, 10 mg/kg oral C(XX), mean (n = 2), read-out: MRT0-inf of C(XX) in plasma): 131 min; AUC(0-t) ([1]; po, 10 mg/kg, 10 mg/kg oral C(XX), mean ± SD, read-out: AUC0-tlast of C(XX) in plasma): 6.6 ± 2.24 ng·h/mL; Cmax ([1]; po, 10 mg/kg, 10 mg/kg oral C(XX), mean ± SD, read-out: Cmax of C(XX) in plasma): 7.47 ± 3.92 ng/mL; Tmax ([1]; po, 10 mg/kg, 10 mg/kg oral C(XX), mean ± SD, read-out: tmax of C(XX) in plasma): 15 min; IC50 (ADRA1A): 5.21 µM; EC50 (ADRA2A): > 100 µM; EC50 (AVPR1A): > 100 µM; EC50 (CHRM2): > 100 µM; IC50 (CNR1): > 100 µM; IC50 (DRD1): 11.1 µM; EC50 (HTR1B (5-HTR1B) [2]): 0.2 µM; IC50 (HTR1B (5-HTR1B) [3]): > 100 µM; EC50 (OPRD1): > 100 µM; IC50 (NMDAR): > 100 µM
